The results in this text go back to PubChem BioAssay (NCI).

The structures appear in SMILES notation.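 Growth conditions: 96-well plates. Treatment: test compound, 48 hours, 5 concentrations. Analysis: linear interpolation between bracketing concentrations; unreached endpoints set to highest concentration. TGI: total growth inhibition.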

Some test systems named below: KM12 colon; MALME-3M melanoma; PC-3 prostate; HCC-2998 colon; HT29 colon; SNB-19 CNS; M14 melanoma; MCF7 breast; ACHN renal; IGROV1 ovarian; T-47D breast; OVCAR-4 ovarian; CCRF-CEM leukemia; NCI-H522 lung.
Common to all, as to assay: DTP human tumour cell line panel, 48 h

What is called TGI is the concentration giving total growth inhibition. Read a high TGI as lower sensitivity of the cells. `CCCCCCCCOC(=O)C12Oc3ccc(-c4ccc5c(c4O)C(O)=C4C(=O)CC(C)C(O)C4(C(=O)OCCCCCCCC)O5)c(O)c3C(O)=C1C(=O)CC(C)C2O` (centres undefined): the TGI in the assay with KM12 colon is above 100 µM; in the assay with MALME-3M melanoma, above 100 µM; with PC-3 prostate, above 100 µM; in the assay with HCC-2998 colon, above 100 µM; in the assay on HT29 colon, above 100 µM; with SNB-19 CNS it was 36.8 µM. The TGI with M14 melanoma is above 100 µM; in the assay with MCF7 breast it was 44.9 µM; in the assay with ACHN renal, 25.5 µM; with IGROV1 ovarian it was 61.3 µM; in the assay on T-47D breast, above 100 µM; in the assay on OVCAR-4 ovarian, above 100 µM. Moreover, the figures for the TGI in the assay on CCRF-CEM leukemia and with NCI-H522 lung were 17.9 µM and 48.2 µM, respectively.
